# Data published in article PMC2895411 (Journal of medicinal chemistry, 2010).
# “Also recorded” adds a separate entry of the source.
# Biological target: T1, human TLR7 (Homo sapiens, UniProt Q9NYK1)
# T1 sequence (Q9NYK1 27-1049): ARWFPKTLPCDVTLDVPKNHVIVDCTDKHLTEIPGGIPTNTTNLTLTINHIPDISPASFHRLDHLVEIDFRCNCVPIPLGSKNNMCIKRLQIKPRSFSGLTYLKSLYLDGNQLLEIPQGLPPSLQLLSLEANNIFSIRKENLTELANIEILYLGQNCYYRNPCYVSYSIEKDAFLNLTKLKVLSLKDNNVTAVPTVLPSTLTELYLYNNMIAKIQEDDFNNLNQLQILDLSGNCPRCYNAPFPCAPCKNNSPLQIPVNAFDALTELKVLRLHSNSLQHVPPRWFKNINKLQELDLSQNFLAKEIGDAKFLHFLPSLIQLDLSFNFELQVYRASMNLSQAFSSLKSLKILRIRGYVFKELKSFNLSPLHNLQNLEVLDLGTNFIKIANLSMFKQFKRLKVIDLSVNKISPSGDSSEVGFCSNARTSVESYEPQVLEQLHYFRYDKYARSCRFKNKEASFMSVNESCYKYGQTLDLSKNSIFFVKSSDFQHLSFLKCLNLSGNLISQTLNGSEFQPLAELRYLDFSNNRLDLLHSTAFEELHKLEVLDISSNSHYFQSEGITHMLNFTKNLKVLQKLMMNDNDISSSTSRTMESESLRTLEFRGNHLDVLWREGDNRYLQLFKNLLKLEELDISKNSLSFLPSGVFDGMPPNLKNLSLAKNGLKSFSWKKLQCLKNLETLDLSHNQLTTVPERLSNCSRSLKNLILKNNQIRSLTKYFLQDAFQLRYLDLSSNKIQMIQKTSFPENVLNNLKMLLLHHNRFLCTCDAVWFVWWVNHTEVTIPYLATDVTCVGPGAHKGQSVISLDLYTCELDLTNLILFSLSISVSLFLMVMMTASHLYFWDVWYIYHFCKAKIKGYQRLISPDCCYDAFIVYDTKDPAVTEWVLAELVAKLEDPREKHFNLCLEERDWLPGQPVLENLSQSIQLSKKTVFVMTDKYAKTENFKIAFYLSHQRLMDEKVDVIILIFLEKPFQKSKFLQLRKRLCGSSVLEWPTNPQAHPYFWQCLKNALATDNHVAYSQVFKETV
# Test: NF-κB induction, human TLR7-specific reporter gene assay
# Assay type: cell-based
# Details: not given
row,EC50,Structure (SMILES)
1,~2000 nM,"CC(C)Cn1cnc2c(N)nc3ccccc3c21 [Compound 1, Imiquimod, reference compound]"

# Same assay, conditions: fold greater activity than 2
row,TLR7 activity relative to compound 2,Structure (SMILES)
1,twenty-fold greater,"CCCCCc1nc2c(N)nc3ccccc3c2n1Cc1ccccc1 [Compound 32, 1-Benzyl-2-pentyl-1H-imidazo[4,5-c]quinolin-4-amine]"

# Same assay, conditions: human TLR7 reporter gene assay
row,"TLR7-agonistic activity, result in words",Structure (SMILES)
1,partial activity,"CCN(CC)Cc1nc2c(N)nc3ccccc3c2n1CC(C)(C)O [Compound 3, 1-(4-Amino-2-((diethylamino)methyl)-1H-imidazo[4,5-c]quinolin-1-yl)-2-methylpropan-2-ol]"
2,bereft of activity,"CCN(Cc1nc2c(N)nc3ccccc3c2n1CC(C)(C)O)C(C)=O [Compound 4, N-((4-Amino-1-(2-hydroxy-2-methylpropyl)-1H-imidazo[4,5-c]quinolin-2-yl)methyl)-N-ethylacetamide]"
3,bereft of activity,"CCCCCCCCCCCCCCCC(=O)N(CC)Cc1nc2c(N)nc3ccccc3c2n1CC(C)(C)O [Compound 5, N-((4-Amino-1-(2-hydroxy-2-methylpropyl)-1H-imidazo[4,5-c]quinolin-2-yl)methyl)-N-ethylpalmitamide]"
4,bereft of activity,"CC/N=C(/NCCCN(C)C)N(CC)Cc1nc2c(N)nc3ccccc3c2n1CC(C)(C)O [Compound 6, 1-((4-Amino-1-(2-hydroxy-2-methylpropyl)-1H-imidazo[4,5-c]quinolin-2-yl)methyl)-3-(3-(dimethylamino)propyl)-1,2-diethylguanidine]"
5,completely inactive,"CCN(CCOCCOCCN)Cc1nc2c(N)nc3ccccc3c2n1CC(C)(C)O [Compound 11, 1-(4-Amino-2-(((2-(2-(2-aminoethoxy)ethoxy)ethyl) (ethyl)amino)methyl)-1H-imidazo[4,5-c]quinolin-1-yl)-2-methylpropan-2-ol]"
6,inactive,"CCN(CCCNC(=S)NCCCNCCCCNCCCN)Cc1nc2c(N)nc3ccccc3c2n1CC(C)(C)O [Compound 16, 1-(3-(((4-amino-1-(2-hydroxy-2-methylpropyl)-1H-imidazo[4,5-c]quinolin-2-yl)methyl)(ethyl)amino)propyl)-3-(3-(4-(3-aminopropylamino)butylamino)propyl) thiourea]"
7,decrease in potency,"C=CCCc1nc2c(N)nc3ccccc3c2n1Cc1ccccc1 [Compound 38, 1-Benzyl-2-(but-3-enyl)-1H-imidazo[4,5-c]quinolin-4-amine]"
8,decrease in potency,"C#CCCc1nc2c(N)nc3ccccc3c2n1Cc1ccccc1 [Compound 43, 1-Benzyl-2-(but-3-ynyl)-1H-imidazo[4,5-c]quinolin-4-amine]"
9,completely inactive,"CCCCCc1nc2c(Cl)nc3ccccc3c2n1Cc1ccccc1 [Compound 44, 1-Benzyl-4-chloro-2-pentyl-1H-imidazo[4,5-c]quinoline]"
10,completely inactive,"CCCCCc1nc2c(O)nc3ccccc3c2n1Cc1ccccc1 [Compound 46, 1-Benzyl-2-pentyl-1H-imidazo[4,5-c]quinolin-4-ol]"
11,completely inactive,"CCCCCc1nc2c(-c3ccccc3)nc3ccccc3c2n1Cc1ccccc1 [Compound 47, 1-Benzyl-2-pentyl-4-phenyl-1H-imidazo[4,5-c]quinoline]"
12,substantially weaker,"CCCCc1nc2c(NO)nc3ccccc3c2n1Cc1ccccc1 [Compound 48, N-(1-Benzyl-2-butyl-1H-imidazo[4,5-c]quinolin-4-yl)hydroxylamine]"
13,substantially weaker,"CCCCc1nc2c(NN)nc3ccccc3c2n1Cc1ccccc1 [Compound 49, 1-Benzyl-2-butyl-4-hydrazinyl-1H-imidazo[4,5-c]quinoline]"
14,completely inactive,"CCCCc1nc2cnc3ccccc3c2n1Cc1ccccc1 [Compound 50, 1-Benzyl-2-butyl-1H-imidazo[4,5-c]quinoline]"
15,very active,"CCNCc1nc2c(N)nc3ccccc3c2n1Cc1ccccc1 [Compound 52, 1-Benzyl-2-((ethylamino)methyl)-1H-imidazo[4,5-c]quinolin-4-amine]"
16,completely inactive,"Clc1nc2ccccc2c2c1nnn2Cc1ccccc1 [Compound 55, 1-Benzyl-4-chloro-1H-[1,2,3]triazolo[4,5-c]quinoline]"
17,completely inactive,"Nc1nc2ccccc2c2c1nnn2Cc1ccccc1 [Compound 56, 1-Benzyl-1H-[1,2,3]triazolo[4,5-c]quinolin-4-amine]"
18,completely inactive,"CCCNC(=O)n1c(=O)n(Cc2ccccc2)c2c3ccccc3ncc21 [Compound 57, 1-Benzyl-2-oxo-N-propyl-1H-imidazo[4,5-c]quinoline-3(2H)-carboxamide]"

row,Structure (SMILES),"TLR7-agonistic activity, result in words"
1,"CCCCCCCCCCCNCc1nc2c(N)nc3ccccc3c2n1CC(C)(C)O [Compound 22, 1-(4-Amino-2-((undecylamino)methyl)-1H-imidazo[4,5-c]quinolin-1-yl)-2-methylpropan-2-ol]",complete loss of activity; also recorded: completely inactive
